Patent publication US20220280644A1, “"TRPswitch" - A STEP FUNCTION CHEMO-OPTOGENETIC LIGAND” (UNIVERSITY OF UTAH RESEARCH FOUNDATION, priority 2019, published 2022)

Legend:
Trpa1b−/− embryos = assay: Rescue experiment, Trpa1b−/− embryos without re-expression; assay type: in vivo, zebrafish; settings: 20 μM, motion within 5 s after 1 s WL3
Procedure: (§1) For Trpa1b ohnolog and paralog rescue experiments, Trpa1b^−/− embryos were injected with ngn1:zTrpa1b-2A-mCherry (partial plasmid sequence in SEQ ID NO:5), ngn1:zTrpa1a-2A-mCherry, ngn1:hTRPA1-2A-EGFP or ngn1:mTRPA1-2A-mCherry at the 1-cell stage for mosaic Rohon-beard neuron expression. Embryos were screened at 2 dpf for fluorescent expression in Rohon-beard neurons, incubated with 20 μM TRPswitch-B for 1 hr and decapitated posterior to the eyes right before experiments. NA 0.25 5× objective and 1 s WL3 light illumination was used.
(§2) To test the potential cross activity of TRPswitch-B on the zebrafish ohnolog Trpa1a and on mammalian orthologs, zebrafish Trpa1a, mouse TRPA1 or human TRPA1 were transiently re-expressed in the Rohon-beard neurons of mutant Trpa1b^−/− zebrafish and performed light-induced motion response experiments in the presence of TRPswitch-B. Rescue experiments were performed in Trpa1b^−/− zebrafish with transient mosaic re-expression of zebrafish Trpa1b (zTrpa1b), zebrafish Trpa1a (zTrpa1a), mouse TRPA1 (mTRPA1) or human TRPA1 (hTRAP1) in Rohon-beard neurons. Embryos were pre-treated with 20 μM TRPswitch-B and decapitated right before light stimulation to eliminate the light response mediated by the retina (Table 5). […]

mouse TRPA1 (mTRPA1) = molecular target: T1, mouse TRPA1 (mTRPA1) (Mus musculus, UniProt Q8BLA8); assay: Rescue experiment, Trpa1b−/− embryos expressing mTRPA1 in Rohon-beard neurons; assay type: in vivo, zebrafish; settings: 20 μM, motion within 5 s after 1 s WL3
T1 construct: 2A peptide (remnant stays on the channel) (C); mCherry (separated at the 2A site) (C, cleaved yes); expressed in transfected cells; host or cells: Rohon-Beard neurons of Trpa1b−/− zebrafish embryos, in vivo
T1 sequence (Q8BLA8 whole entry): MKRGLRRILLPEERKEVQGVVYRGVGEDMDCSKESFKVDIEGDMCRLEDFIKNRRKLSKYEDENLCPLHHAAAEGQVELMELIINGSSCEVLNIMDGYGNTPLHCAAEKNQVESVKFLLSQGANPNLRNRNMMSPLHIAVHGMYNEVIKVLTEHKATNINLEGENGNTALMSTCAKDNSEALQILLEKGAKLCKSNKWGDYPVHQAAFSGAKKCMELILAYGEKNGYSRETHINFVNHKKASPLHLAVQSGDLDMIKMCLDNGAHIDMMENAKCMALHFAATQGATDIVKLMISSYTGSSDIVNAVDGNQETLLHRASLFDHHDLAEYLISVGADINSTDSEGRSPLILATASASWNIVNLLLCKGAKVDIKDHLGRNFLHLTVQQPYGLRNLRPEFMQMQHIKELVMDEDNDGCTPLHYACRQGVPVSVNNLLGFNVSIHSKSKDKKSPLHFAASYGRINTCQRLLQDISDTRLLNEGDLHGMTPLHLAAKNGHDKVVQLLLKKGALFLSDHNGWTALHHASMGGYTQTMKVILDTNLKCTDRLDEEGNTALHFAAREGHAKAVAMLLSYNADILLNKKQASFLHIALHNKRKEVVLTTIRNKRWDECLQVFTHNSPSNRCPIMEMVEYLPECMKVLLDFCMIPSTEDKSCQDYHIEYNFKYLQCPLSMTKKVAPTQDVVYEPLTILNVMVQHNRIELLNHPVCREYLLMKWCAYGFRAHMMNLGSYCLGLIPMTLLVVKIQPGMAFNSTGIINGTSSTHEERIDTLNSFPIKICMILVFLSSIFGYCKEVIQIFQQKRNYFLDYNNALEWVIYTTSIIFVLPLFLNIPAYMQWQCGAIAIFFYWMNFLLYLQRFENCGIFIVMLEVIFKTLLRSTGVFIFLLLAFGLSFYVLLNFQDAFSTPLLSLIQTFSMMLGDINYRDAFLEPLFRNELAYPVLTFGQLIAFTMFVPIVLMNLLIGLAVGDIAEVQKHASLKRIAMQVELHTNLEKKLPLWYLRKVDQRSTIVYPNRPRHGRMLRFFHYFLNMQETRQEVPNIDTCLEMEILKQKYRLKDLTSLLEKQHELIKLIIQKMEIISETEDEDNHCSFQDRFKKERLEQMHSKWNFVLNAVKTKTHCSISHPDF
Procedure: as §1, §2

[1] = test system: larvae that lack exogenous expression of Trpa1b in cardiomyocytes; assay: Heartbeat experiment in larvae that lack exogenous expression of Trpa1b in cardiomyocytes; assay type: in vivo, zebrafish; settings: no exogenous Trpa1b in cardiomyocytes
Trpa1b = assay: Heartbeat interruption in larvae expressing Trpa1b in cardiomyocytes; assay type: in vivo, zebrafish; settings: 20 μM
Procedure: Heartbeat interruption experiments were performed in vivo on 2 dpf Tg(cm/c2:Trpa1b-2A-EGFP) larvae in a Trpa1b^−/− background. Larvae were pretreated with 20 μM of TRPswitch-A or TRPswitch-B in E3 at a final concentration of 1% DMSO for 1 h in the dark at 28.5° C. before experimental manipulation. Immediately prior to the onset of experiments, E3 solution was replaced with 0.2 mg/mL tricaine (Sigma, A5040) in E3 for anesthetizing the larvae. Violet light (352-402 nm) and green light (500-600 nm) were used for E to Z and Z to E isomerization, respectively. Violet and green light excitation were achieved using a band pass filter FF01-377/50 and an et500lp long pass barrier filter, respectively, together with a t600plxxr dichroic mirror and a 300-Watt xenon bulb light source (Sutter Instrument). Experiments were performed using a NA 0.6 40× air objective at room temperature. The zebrafish heart in the whole field of view was illuminated with 1 s violet light followed by various lengths of green light as indicated. Ventricle width measurement was performed using the ImageJ ‘measure’ function on the widest outer ventricle width every 100 ms.

[2] = Z→E thermal isomerisation kinetics; assay type: physicochemical
Procedure: In order to determine the Z→E thermal isomerisation kinetics in DMSO-d6 a ˜20 mM solution of the relevant compound was irradiated using a Luzchem LZC-4V photoreactor fitted with 12×8 W LZC-420 lamps (420 nm peak emission) until no further change was observable by ^1H NMR. For 30% water:DMSO samples, a 15 μM solution of the relevant compound was irradiated in a quartz cuvette using 365 nm LEDs (3×800 mW Nichia NCSU276A) until no further change was observed by UV-Vis spectroscopy. Compounds (˜25 μM solutions in DMSO) were treated analogously. In the case of compounds studied by NMR, the change in Z-isomer percentage was followed as a function of time through integration of the relevant peaks. […]
For data collected via ^1H NMR, the natural log of the Z isomer concentration was plotted against time to yield a straight line implying first order kinetics. The gradient of this line was used to determine the rate constant for Z→E conversion from which the thermal half-life could be calculated:
For data collected via UV-Vis Spectroscopy, absorbance data at a fixed wavelength was fitted using the following, first order equation: […]
where k represents the rate constant; A∞, A0 and At are the absorbances of the pure E-state, Z-rich state, and time t, respectively. […]

% response (mouse TRPA1 (mTRPA1)): 0% | thermal half-lives [2]: long thermal half-lives
Compound: Cc1nn(C)c(C)c1/N=N/c1ccc(NC(=O)c2cccs2)cc1NC(=O)c1cccs1 [Compound 9, (E)-N,N′-(4-((1,3,5-trimethyl-1H-pyrazol-4-yl)diazenyl)-1,3-phenylene)bis(thiophene-2-carboxamide)]
% response (Trpa1b−/− embryos): 0% | heartbeat switching with light illumination [1]: negative results | ventricle heartbeat after 1 s violet light (Trpa1b; 1 h pre-incubation): could be stopped | ventricular rhythm after 1 s green light (Trpa1b; after violet light): re-stored
